In ChEMBL document CHEMBL3526000 (Drug Metab Dispos, 2012):

What was measured:
Assay type in all cases: ADME
Conditions in all cases: recombinant enzyme, 1 h
[1] = biological target: T1, UDP-glucuronosyltransferase 1A3 (Homo sapiens, UniProt P35503); experiment: Drug metabolism assessed as recombinant human UGT1A3 assessed as O-glucuronidation at 100 uM incubated for 60 mins by LC-MS/MS analysis
T1 sequence (P35503 whole entry): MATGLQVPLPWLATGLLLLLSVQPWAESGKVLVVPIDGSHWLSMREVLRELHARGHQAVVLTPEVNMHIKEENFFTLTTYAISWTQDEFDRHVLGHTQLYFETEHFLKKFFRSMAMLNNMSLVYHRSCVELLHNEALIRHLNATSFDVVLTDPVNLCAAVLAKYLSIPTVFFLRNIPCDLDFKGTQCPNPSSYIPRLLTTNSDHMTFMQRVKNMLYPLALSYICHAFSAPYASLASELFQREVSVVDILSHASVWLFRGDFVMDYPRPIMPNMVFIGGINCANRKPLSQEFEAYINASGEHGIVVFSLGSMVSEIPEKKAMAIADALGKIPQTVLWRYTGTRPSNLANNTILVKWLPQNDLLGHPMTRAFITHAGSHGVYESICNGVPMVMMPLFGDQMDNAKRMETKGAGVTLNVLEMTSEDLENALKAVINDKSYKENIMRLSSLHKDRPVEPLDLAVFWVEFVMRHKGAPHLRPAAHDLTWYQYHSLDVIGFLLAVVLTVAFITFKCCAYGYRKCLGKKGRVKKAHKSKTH

[2] = biological target: T2, UDP-glucuronosyltransferase 1A6 (Homo sapiens, UniProt P19224); experiment: Drug metabolism assessed as recombinant human UGT1A6 assessed as O-glucuronidation at 100 uM incubated for 60 mins by LC-MS/MS analysis
T2 sequence (P19224 whole entry): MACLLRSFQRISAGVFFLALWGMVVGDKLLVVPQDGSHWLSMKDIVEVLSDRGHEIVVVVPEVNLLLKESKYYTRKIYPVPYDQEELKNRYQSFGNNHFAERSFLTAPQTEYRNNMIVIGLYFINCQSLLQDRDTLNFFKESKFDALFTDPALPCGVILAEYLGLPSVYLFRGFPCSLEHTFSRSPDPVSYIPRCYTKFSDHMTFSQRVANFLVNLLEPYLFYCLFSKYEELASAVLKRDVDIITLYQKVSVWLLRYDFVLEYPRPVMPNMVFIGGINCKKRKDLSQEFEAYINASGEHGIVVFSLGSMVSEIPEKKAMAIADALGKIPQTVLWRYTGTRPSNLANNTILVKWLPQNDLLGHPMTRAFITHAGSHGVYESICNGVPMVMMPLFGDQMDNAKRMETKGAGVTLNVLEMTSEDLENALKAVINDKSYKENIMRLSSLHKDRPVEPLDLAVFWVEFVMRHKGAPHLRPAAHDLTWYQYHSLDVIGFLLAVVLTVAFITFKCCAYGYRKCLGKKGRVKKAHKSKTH

[3] = biological target: T3, UDP-glucuronosyltransferase 2B4 (Homo sapiens, UniProt P06133); experiment: Drug metabolism assessed as recombinant human UGT2B4 assessed as O-glucuronidation at 100 uM incubated for 60 mins by LC-MS/MS analysis
T3 sequence (P06133 whole entry): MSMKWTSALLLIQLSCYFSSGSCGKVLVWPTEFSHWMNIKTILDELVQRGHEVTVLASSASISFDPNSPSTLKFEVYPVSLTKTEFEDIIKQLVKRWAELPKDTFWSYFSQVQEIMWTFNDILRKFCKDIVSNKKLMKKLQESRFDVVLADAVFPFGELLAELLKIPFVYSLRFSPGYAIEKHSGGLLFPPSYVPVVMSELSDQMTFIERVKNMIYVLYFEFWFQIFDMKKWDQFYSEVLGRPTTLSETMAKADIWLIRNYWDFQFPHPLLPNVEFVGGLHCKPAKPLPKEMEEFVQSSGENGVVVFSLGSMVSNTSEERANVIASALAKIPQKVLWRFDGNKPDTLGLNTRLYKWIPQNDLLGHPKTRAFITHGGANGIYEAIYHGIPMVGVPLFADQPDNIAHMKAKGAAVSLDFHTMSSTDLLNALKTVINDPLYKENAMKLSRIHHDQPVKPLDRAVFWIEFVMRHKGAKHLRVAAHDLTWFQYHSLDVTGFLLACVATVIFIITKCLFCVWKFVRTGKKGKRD

[4] = biological target: T4, UDP-glucuronosyltransferase 2B15 (Homo sapiens, UniProt P54855); experiment: Drug metabolism assessed as recombinant human UGT2B15 assessed as O-glucuronidation at 100 uM incubated for 60 mins by LC-MS/MS analysis
T4 sequence (P54855 whole entry): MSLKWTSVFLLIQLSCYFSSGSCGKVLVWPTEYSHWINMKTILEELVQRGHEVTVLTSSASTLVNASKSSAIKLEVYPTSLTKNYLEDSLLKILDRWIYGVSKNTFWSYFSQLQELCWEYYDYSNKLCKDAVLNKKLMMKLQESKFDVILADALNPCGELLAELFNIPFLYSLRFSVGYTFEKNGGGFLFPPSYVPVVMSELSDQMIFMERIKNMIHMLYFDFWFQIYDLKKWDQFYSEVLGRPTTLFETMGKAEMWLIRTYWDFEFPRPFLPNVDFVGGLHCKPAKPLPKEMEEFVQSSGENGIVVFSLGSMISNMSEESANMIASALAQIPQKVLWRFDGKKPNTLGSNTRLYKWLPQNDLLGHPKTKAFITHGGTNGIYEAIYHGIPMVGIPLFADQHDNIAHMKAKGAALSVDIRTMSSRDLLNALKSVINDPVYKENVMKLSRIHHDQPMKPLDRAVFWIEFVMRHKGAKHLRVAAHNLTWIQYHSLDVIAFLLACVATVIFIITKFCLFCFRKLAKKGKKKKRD

[5] = biological target: T5, UDP-glucuronosyltransferase 1A8 (Homo sapiens, UniProt Q9HAW9); experiment: Drug metabolism assessed as recombinant human UGT1A8 assessed as N-glucuronidation at 100 uM incubated for 60 mins by LC-MS/MS analysis
T5 sequence (Q9HAW9 whole entry): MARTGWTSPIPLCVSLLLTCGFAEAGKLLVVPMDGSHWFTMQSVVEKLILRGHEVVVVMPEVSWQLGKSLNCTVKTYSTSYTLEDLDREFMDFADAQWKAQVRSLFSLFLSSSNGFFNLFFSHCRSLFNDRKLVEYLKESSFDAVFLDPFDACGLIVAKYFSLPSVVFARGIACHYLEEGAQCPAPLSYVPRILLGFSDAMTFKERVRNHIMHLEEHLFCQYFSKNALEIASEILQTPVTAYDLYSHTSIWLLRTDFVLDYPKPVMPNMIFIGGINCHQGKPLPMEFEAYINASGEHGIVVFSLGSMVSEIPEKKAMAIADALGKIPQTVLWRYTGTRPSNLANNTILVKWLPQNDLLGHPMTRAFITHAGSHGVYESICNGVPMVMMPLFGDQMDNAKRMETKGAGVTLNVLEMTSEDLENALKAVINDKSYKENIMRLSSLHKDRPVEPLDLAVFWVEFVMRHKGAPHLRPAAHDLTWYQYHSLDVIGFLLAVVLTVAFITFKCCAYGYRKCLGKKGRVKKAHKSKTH

Drug metabolism [1]: metabolite_not_detected
Drug metabolism [2]: metabolite_not_detected
Drug metabolism [3]: metabolite_not_detected
Drug metabolism [4]: metabolite_not_detected
Drug metabolism [5]: metabolite_not_detected
SMILES: O=C(CCCN1CCC(O)(c2ccc(Cl)cc2)CC1)c1ccc(F)cc1 [HALOPERIDOL]
